Laboratory results as given in patent US7786141B2 (Vertex Pharmaceuticals Incorporated, priority 2004, dated 2010).
Like-named read-outs stand apart in the source and are kept apart here.

Legend:
M1 muscarinic receptor = biological target: T1, M1 muscarinic receptor (Homo sapiens, UniProt P11229); assay: Functional mobilization of intracellular calcium (FLIPR) in M1-CHO cells; type: cell-based
T1 construct: expressed in transfected cells; host or cells: CHO (M1-CHO)
T1 sequence (P11229 1-460): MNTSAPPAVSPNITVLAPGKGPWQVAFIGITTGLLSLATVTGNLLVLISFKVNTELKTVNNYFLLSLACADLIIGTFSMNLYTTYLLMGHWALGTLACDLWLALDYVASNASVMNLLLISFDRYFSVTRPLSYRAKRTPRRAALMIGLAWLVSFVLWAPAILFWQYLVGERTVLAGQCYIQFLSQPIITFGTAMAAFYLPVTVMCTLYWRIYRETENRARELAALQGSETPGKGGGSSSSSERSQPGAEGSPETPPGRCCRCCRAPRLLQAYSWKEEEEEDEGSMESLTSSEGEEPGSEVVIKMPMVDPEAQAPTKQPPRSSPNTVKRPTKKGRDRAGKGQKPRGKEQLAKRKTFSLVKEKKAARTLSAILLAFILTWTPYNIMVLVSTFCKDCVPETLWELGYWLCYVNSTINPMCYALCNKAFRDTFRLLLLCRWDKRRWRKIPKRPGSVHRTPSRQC
Outline: (§1)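 Intracellular calcium rise is measured by FLIPR fluorescence over 60 sec in CHO cells carrying human M1 or M4 receptors. Compounds are tested alone as agonists, or pre-incubated 15 min (or co-applied) ahead of carbachol at its EC80 to detect inhibition.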

M4 muscarinic receptor = biological target: T2, M4 muscarinic receptor (Homo sapiens, UniProt P08173); assay: Functional mobilization of intracellular calcium (FLIPR) in M4-CHO cells; type: cell-based
T2 construct: expressed in transfected cells; host or cells: CHO (M4-CHO)
T2 sequence (P08173 1-479): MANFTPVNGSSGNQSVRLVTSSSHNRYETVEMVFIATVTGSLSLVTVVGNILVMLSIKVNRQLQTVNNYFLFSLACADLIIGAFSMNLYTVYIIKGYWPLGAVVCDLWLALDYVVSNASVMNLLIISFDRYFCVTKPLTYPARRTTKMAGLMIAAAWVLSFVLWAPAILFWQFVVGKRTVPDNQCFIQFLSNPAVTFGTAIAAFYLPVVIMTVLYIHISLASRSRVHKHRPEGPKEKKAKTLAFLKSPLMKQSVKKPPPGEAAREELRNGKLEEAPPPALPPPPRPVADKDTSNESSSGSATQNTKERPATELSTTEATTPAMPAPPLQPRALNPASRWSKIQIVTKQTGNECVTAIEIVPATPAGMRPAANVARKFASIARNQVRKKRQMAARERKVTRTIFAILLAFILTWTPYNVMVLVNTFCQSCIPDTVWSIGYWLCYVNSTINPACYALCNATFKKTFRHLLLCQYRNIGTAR
Outline: as §1

[1] = M1-CHO cells, calcium mobilization (FLIPR)
[2] = M1-CHO cells, calcium mobilization (FLIPR), read-out: M1 Efficacy
[3] = M4-CHO cells, calcium mobilization (FLIPR)
[4] = M4-CHO cells, calcium mobilization (FLIPR), read-out: M4 Efficacy
[5] = M1 receptor, calcium mobilization
[6] = M1 receptor, calcium mobilization, read-out: M1 Efficacy
[7] = M4 receptor, calcium mobilization
[8] = M4 receptor, calcium mobilization, read-out: M4 Efficacy
[9] = Table 4, 100% efficacy is the maximum response obtained with the Carbachol control
[10] = Table 4, modulating M1 receptor
[11] = Table 4, modulating M4 receptor

Row | SMILES | M1 Activity (M1 muscarinic receptor; [5]) | M4 Activity (M4 muscarinic receptor; [7]) | Emax (M4 muscarinic receptor; [8]) [%] | Emax (M1 muscarinic receptor; [9]) [%] | M1 Activity (M1 muscarinic receptor; [10]) | Emax (M4 muscarinic receptor; [9]) [%] | M4 Activity (M4 muscarinic receptor; [11]) | further results
1 | CC(=O)N1CC2(CCN(C3CCCN(C(=O)OC(C)C)CC3)CC2)c2cc(F)ccc21 (stereo not shown) [compound 395] | – | – | – | – | – | – | – | EC50 (M1 muscarinic receptor; [1]): < 100 nM; Emax (M1 muscarinic receptor; [2]): < 65%; EC50 (M4 muscarinic receptor; [3]): > 1000 nM; Emax (M4 muscarinic receptor; [4]): < 65%
2 | COC(=O)N1CCC(CN2CCC3(CC2)C[C@H](NC(C)=O)c2ccccc23)CC1 [compound 182] | x (activity was measured to be greater than 1.0 μM) | x (activity was measured to be greater than 1.0 μM) | 65 to 85 | – | – | – | – | Emax (M1 muscarinic receptor; [6]): 65 to 85%
3 | Fc1ccc2c(c1)C1(CCN(C3CC4CCC3O4)CC1)CN2 (stereo not shown) [compound 705] | – | – | – | < 25 | x (activity was measured to be greater than 5.0 μM) | < 25 | x (activity was measured to be greater than 5.0 μM) | –
4 | CS(=O)(=O)N1CC2(CCN(C3CC4CCC(C3)N4C(=O)O[C@H]3CCOC3)CC2)c2cc(F)ccc21 (stereo partly shown) [compound 388] | – | – | – | – | – | – | – | EC50 (M1 muscarinic receptor; [1]): < 100 nM; Emax (M1 muscarinic receptor; [2]): 65 to 85%; EC50 (M4 muscarinic receptor; [3]): > 1000 nM; Emax (M4 muscarinic receptor; [4]): < 65%
5 | CCOC(=O)N1CCC(N2CCC3(CC2)CN(C(=O)N2CCCC2)c2ccc(F)cc23)CC1 [compound 22] | xxx (activity was measured to be less than 0.1 μM) | x (activity was measured to be greater than 1.0 μM) | < 65 | – | – | – | – | Emax (M1 muscarinic receptor; [6]): 65 to 85%
6 | CC(=O)N1CC2(CCN(C3CCCN(C(=O)OCCF)CC3)CC2)c2cc(F)ccc21 (stereo not shown) [compound 168] | xx (activity was measured to be between 0.1 μM and 1.0 μM) | xx (activity was measured to be between 0.1 μM and 1.0 μM) | > 85 | – | – | – | – | –
7 | CCOC(=O)N1CCC(N2CCC3(CC2)CN(c2cnccn2)c2ccc(F)cc23)CC1 [compound 752] | – | – | – | 25 to 100 | xxx (activity was measured to be less than 2.0 μM) | 25 to 100 | xxx (activity was measured to be less than 2.0 μM) | –
8 | Fc1ccc2c(c1)C1(CCN(C3CCCCC3)CC1)CO2 [compound 152] | xx (activity was measured to be between 0.1 μM and 1.0 μM) | x (activity was measured to be greater than 1.0 μM) | > 85 | – | – | – | – | Emax (M1 muscarinic receptor; [6]): 65 to 85%
9 | CC(=O)N1CC2(CCN(CC3CCN(C(=O)OC4CCC4)CC3)CC2)c2cc(C)ccc21 [compound 757] | – | – | – | < 25 | x (activity was measured to be greater than 5.0 μM) | < 25 | x (activity was measured to be greater than 5.0 μM) | –
10 | Cc1ccc2c(c1)C1(CCN(CC3CC4CCC(C4)C3)CC1)CN2 (stereo not shown) [compound 622] | – | – | – | < 25 | x (activity was measured to be greater than 5.0 μM) | < 25 | x (activity was measured to be greater than 5.0 μM) | –
11 | O=C(OCC1CCCO1)N1C2CCC1CC(N1CCC3(CC1)COc1ccc(F)cc13)C2 (stereo not shown) [compound 363] | xx (activity was measured to be between 0.1 μM and 1.0 μM) | x (activity was measured to be greater than 1.0 μM) | < 65 | – | – | – | – | Emax (M1 muscarinic receptor; [6]): < 65%
12 | C#CCCOC(=O)N1CCC(N2CCC3(CC2)CN(CCOC)c2ccc(F)cc23)CC1 [compound 565] | – | – | – | 25 to 100 | xxx (activity was measured to be less than 2.0 μM) | 25 to 100 | xxx (activity was measured to be less than 2.0 μM) | –
13 | CN(C)C(=O)N[C@H]1CC2(CCN(C[C@@H]3C[C@H]4C=C[C@H]3C4)CC2)c2ccccc21 [compound 438] | – | – | – | 25 to 100 | xxx (activity was measured to be less than 2.0 μM) | < 25 | xxx (activity was measured to be less than 2.0 μM) | –
14 | CCOC(=O)N1C2CCC1CC(N1CCC3(CC1)CN(C(=O)C(C)C)c1ccc(F)cc13)C2 (stereo not shown) [compound 390] | – | – | – | – | – | – | – | EC50 (M1 muscarinic receptor; [1]): < 100 nM; Emax (M1 muscarinic receptor; [2]): 65 to 85%; EC50 (M4 muscarinic receptor; [3]): > 1000 nM; Emax (M4 muscarinic receptor; [4]): < 65%
